Results taken from patent publication US20180346505A1, “MONONUCLEOTIDES HAVING A BIOREVERSIBLE DISULFIDE GROUP” (priority 2014, published 2018).

Columns and labels:
GT1b (Con1) HCV replicon = assay: HCV replicon assay, wild type GT1b (Con1), luciferase based, stable format; assay type: cell-based, hepatitis C virus; conditions: Huh-7 cells
Description: (§1) The antiviral activity of the test compounds was assessed in the wild type GT1b (Con1), GT1a (H77), and GT1b/2a, GT1b/3a, GT1b/4a and GT1b/5a NS5B chimeric replicons, as well as the NS5B mutant replicons listed in Table 2a and 2b.
(§2) All the replicon assays were luciferase based in Huh-7 cells, either in stable format (GT1b and GT1a) or by transient transfection by electroporation (chimeric and mutant replicons). For a standard HCV replicon assay, stable or transiently transfected Huh-7 cells were seeded in 96-well plates (5,000 cells/well), cultured in DMEM containing 10% FBS, and incubated at 37° C., 5% CO2. On the following day, test compounds were diluted with assay media and added to the appropriate wells (final DMSO concentration in the cell culture medium was 0.5%). Assay reference positive control was included in each run to ensure assay performance. Cells were incubated at 37° C., 5% CO2 for 72 hours, at which time the cells were still sub-confluent. The antiviral activity was determined by measuring replicon reporter firefly luciferase activity using Bright Glo kit in accordance with the protocol provided by the supplier (Promega). The toxicity of the test compounds was assessed by CytoTox-1 cell proliferation assay (Promega). The half maximal effective concentration (EC50) and the half maximal toxic concentration (TC50) values were calculated using the GraphPad Prism software.

[1] = system: GT1b/2a NS5B chimeric replicon; assay: HCV replicon assay, GT1b/2a NS5B chimeric replicon, transient transfection; assay type: cell-based, hepatitis C virus; conditions: Hepatitis C virus, Huh-7, 72 h, read-out: GT2a EC50, GT1b/2a NS5B chimeric replicon, Huh-7 cells, luciferase, 72 hours
Description: as §1
(§3) To generate HCV NS5B chimeric replicons, the GT1 b replicon was used as a backbone with the NS5B gene replaced with the NS5B gene of GT2a, GT3a, GT4a and GT5a derived from clinical isolates. These NS5B genes were cloned into the GT1b backbone and were confirmed by sequencing.
as §2

[2] = system: GT1b/3a NS5B chimeric replicon; assay: HCV replicon assay, GT1b/3a NS5B chimeric replicon, transient transfection; assay type: cell-based, hepatitis C virus; conditions: Hepatitis C virus, Huh-7, 72 h, read-out: GT3a EC50, GT1b/3a NS5B chimeric replicon, Huh-7 cells, luciferase, 72 hours
Description: as §1, §3, §2

[3] = system: GT1a S282T NS5B mutant replicon; assay: HCV NS5B mutant replicon assay, GT1a S282T; assay type: cell-based; conditions: Hepatitis C virus, Huh-7, 72 h, read-out: GT1a S282T EC50
Description: as §1
(§4) The HCV replicon mutants were generated by site-directed mutagenesis (SDM). The SDM was performed by PCR and the PCR fragments were inserted into the backbone replicon construct. The inserted PCR fragments and the mutants were confirmed by sequencing.
as §2

[4] = system: GT1a L159F NS5B mutant replicon; assay: HCV NS5B mutant replicon assay, GT1a L159F; assay type: cell-based; conditions: Hepatitis C virus, Huh-7, 72 h, read-out: GT1a L159F EC50
Description: as §1, §4, §2

[5] = system: GT1b S282T NS5B mutant replicon; assay: HCV NS5B mutant replicon assay, GT1b S282T; assay type: cell-based; conditions: Hepatitis C virus, Huh-7, 72 h, read-out: GT1b S282T EC50
Description: as §1, §4, §2

[6] = system: GT1b C316N NS5B mutant replicon; assay: HCV NS5B mutant replicon assay, GT1b C316N; assay type: cell-based; conditions: Hepatitis C virus, Huh-7, 72 h, read-out: GT1b C316N EC50
Description: as §1, §4, §2

[7] = system: GT3a S282T NS5B mutant replicon; assay: HCV NS5B mutant replicon assay, GT3a S282T; assay type: cell-based; conditions: Hepatitis C virus, Huh-7, 72 h, read-out: GT3a S282T EC50
Description: as §1, §3, §4, §2

[8] = system: GT3a V321A NS5B mutant replicon; assay: HCV NS5B mutant replicon assay, GT3a V321A; assay type: cell-based; conditions: Hepatitis C virus, Huh-7, 72 h, read-out: GT3a V321A EC50
Description: as §1, §3, §4, §2

[9] = Nucleoside phosphoester stability in fetal bovine serum; assay type: in vitro ADME; conditions: 100 μM, 37° C.
Description: In another test, mononucleotide stock solutions were prepared at 10 mM in DMSO, and 10 μL of each stock solution was added to 1 mL of fetal bovine serum (FBS) to provide 100 μM of final compound concentration. These samples incubated for 24 h in a 37° C. water bath and 100 μL aliquots removed at t=0, 1, 2, 4, 6 and 24 hours. Individual samples were precipitated with 200 μL cold acetonitrile, the debris was pelleted at 14K RPM for 30 min at 4° C., and the supernatant was removed and subjected to LCMS analysis as described below.
Mobile phase A: 95:5 H2O:acetonitrile, 10 mM ammonium acetate, 0.01% formic acid
Mobile phase B: 95:5 acetonitrile:H2O, 10 mM ammonium acetate, 0.01% formic acid
Extracted ion chromatograms generated using M+1H and ammonium adduct for each compound.

[10] = Nucleoside phosphoester stability in simulated intestinal fluid; assay type: in vitro ADME
Description: Test compounds at 2 μM were incubated at 37° C. with simulated intestinal fluid (SIF), which contains 0.68% (w/v) monobasic potassium phosphate and 1% (w/v) pancreatin in ultra-pure water (pH 6.8). Duplicate samples were used. Samples were removed at 0, 15, 30, 60, 120, 360 and 1440 min, immediately mixed with cold acetonitrile containing an internal standard (IS), and stored at −80° C. before analysis. Chlorambucil was used as a positive control. Samples were analyzed by a LC/MS/MS method, and disappearance of test compound was assessed by comparison of peak area ratios of analyte/IS and reported as % test compound remaining at each time point.

[11] = Hepatitis C virus, GT1B, Huh-7, 72 h

Structure (SMILES) | EC50 (GT1b (Con1) HCV replicon; [11]) [nM] | EC50 [1] [nM] | EC50 [2] [nM] | EC50 [3] [nM] | EC50 [4] [nM] | EC50 [5] [nM] | EC50 [6] [nM] | EC50 [7] [nM] | EC50 [8] [nM] | % t = 0 ([9]; 0 hours) [%] | % t = 0 ([9]; 1 hour) [%] | % t = 0 ([9]; 2 hours) [%] | % t = 0 ([9]; 4 hours) [%] | % t = 0 ([9]; 6 hours) [%] | % t = 0 ([9]; 24 hours) [%] | also measured
CC(C)(C)SSc1ccccc1CCOP1(=O)OC[C@H]2O[C@@H](n3ccc(=O)[nH]c3=O)[C@](C)(F)[C@@H]2O1 (single isomer, unassigned) [Compound 7A] | 9 | 3 | 8 | 60 | 11 | 65 | 9 | 44 | 12 | 100.0 | 101.0 | 101.0 | 100.9 | 92.5 | 87.9 | EC50 (GT1b (Con1) HCV replicon; 72 hours): 5 to 8 nM; % Remaining ([10]; simulated gi fluid, 0 h, 2 μM, pH 6.8): 100.00%; % Remaining ([10]; simulated gi fluid, 0.25 h, 2 μM, pH 6.8): 102.65%; % Remaining ([10]; simulated gi fluid, 0.5 h, 2 μM, pH 6.8): 104.34%; % Remaining ([10]; simulated gi fluid, 1 h, 2 μM, pH 6.8): 111.04%; % Remaining ([10]; simulated gi fluid, 2 h, 2 μM, pH 6.8): 101.89%; % Remaining ([10]; simulated gi fluid, 6 h, 2 μM, pH 6.8): 121.95%; % Remaining ([10]; simulated gi fluid, 24 h, 2 μM, pH 6.8): 51.70%
CC(C)OC(=O)[C@H](C)N[P@](=O)(OC[C@H]1O[C@@H](n2ccc(=O)[nH]c2=O)[C@](C)(F)[C@@H]1O)Oc1ccccc1 [sofosbuvir, reference compound] | 36 to 66 | 36 | 90 to 95 | 194 to 694 | 80 | 446 to 554 | 25 | 84 to 572 | 166 | 100.0 | 96.2 | 96.5 | 89.0 | 91.6 | 102.2 | % Remaining ([10]; simulated intestinal fluid pH 6.8, 2 μM, 37° C., 0 min): 100.00%; % Remaining ([10]; simulated intestinal fluid pH 6.8, 2 μM, 37° C., 15 min): 5.57%; % Remaining ([10]; simulated intestinal fluid pH 6.8, 2 μM, 37° C., 30 min): 0.00%; % Remaining ([10]; simulated intestinal fluid pH 6.8, 2 μM, 37° C., 60 min): 0.00%; % Remaining ([10]; simulated intestinal fluid pH 6.8, 2 μM, 37° C., 120 min): 0.00%; % Remaining ([10]; simulated intestinal fluid pH 6.8, 2 μM, 37° C., 360 min): 0.00%; % Remaining ([10]; simulated intestinal fluid pH 6.8, 2 μM, 37° C., 1440 min): 0.00%
